These results are taken from paper PMC3535830 (Bioorganic & medicinal chemistry letters, 2012).

Like-named read-outs stand apart in the source and are kept apart here. Some results are limits rather than exact numbers.

Data set [1] has as its target T1, human M4 receptor (Homo sapiens, UniProt P08173).
T1 sequence (P08173 1-479): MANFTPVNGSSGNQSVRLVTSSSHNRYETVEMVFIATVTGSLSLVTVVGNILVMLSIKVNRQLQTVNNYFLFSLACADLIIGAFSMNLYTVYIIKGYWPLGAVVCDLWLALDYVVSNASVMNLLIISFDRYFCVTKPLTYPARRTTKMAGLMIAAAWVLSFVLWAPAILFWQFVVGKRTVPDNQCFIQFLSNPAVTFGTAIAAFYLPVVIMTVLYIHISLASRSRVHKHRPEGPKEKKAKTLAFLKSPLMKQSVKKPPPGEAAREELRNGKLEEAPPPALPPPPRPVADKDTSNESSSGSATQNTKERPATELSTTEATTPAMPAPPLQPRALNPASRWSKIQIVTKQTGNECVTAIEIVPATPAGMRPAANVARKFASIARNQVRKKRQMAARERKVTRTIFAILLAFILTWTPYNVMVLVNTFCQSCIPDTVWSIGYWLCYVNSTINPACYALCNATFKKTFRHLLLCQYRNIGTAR
The experiment in a line: human M4 positive allosteric modulator potency assay. It is filed as cell-based. The conditions noted are these: human M4 PAM; mean of at least 3 experiments.

The target in data set [2] is T2, hM2 (Homo sapiens, UniProt P08172).
T2 sequence (P08172 1-466): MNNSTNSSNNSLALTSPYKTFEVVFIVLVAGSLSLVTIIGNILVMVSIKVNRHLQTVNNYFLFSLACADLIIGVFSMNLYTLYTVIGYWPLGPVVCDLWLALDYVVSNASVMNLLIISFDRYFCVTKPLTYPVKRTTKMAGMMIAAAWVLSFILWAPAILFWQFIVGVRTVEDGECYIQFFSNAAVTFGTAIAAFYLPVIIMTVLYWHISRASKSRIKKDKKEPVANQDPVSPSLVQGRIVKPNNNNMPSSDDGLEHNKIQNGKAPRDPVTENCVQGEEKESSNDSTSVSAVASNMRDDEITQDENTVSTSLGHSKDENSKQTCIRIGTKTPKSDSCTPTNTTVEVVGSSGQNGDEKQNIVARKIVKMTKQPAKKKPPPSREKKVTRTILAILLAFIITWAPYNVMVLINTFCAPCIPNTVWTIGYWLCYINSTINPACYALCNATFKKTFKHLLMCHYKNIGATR
The experiment in a line: muscarinic selectivity hM2. It is filed as cell-based.

Data set [3] can be described thus: in vitro PK: predicted hepatic clearance, rat. It is filed as in vitro ADME. Conditions: for predicted clearance in the rat (CLHEP), in words: in vitro PK prediction; for rCLHEP: in vitro predicted hepatic clearance.
Data set [4] in a line: in vitro PK: predicted hepatic clearance, human. It is filed as in vitro ADME.
The nature of data set [5]: rat equilibrium dialysis plasma protein binding. It is filed as in vitro ADME. Conditions: fraction unbound.
Data set [6] deals with T3, rM2 (Rattus norvegicus, UniProt P10980).
T3 sequence (P10980 1-466): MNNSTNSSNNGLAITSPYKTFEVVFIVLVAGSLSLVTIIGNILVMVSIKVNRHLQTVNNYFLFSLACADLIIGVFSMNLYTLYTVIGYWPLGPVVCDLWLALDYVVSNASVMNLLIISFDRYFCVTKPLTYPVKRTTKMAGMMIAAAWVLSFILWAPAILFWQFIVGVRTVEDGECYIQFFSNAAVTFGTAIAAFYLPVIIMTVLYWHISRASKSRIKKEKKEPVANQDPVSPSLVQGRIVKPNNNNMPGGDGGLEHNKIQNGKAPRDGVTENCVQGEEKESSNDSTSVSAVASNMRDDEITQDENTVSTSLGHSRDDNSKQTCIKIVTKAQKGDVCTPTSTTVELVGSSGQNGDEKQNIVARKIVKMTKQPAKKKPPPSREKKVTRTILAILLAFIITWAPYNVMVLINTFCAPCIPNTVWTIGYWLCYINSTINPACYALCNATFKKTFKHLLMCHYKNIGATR
The experiment in a line: muscarinic selectivity rM2. It is filed as cell-based.

Data set [7] deals with other four mAChR subtypes (M1, M2, M3, M5). The experiment in a line: selectivity against the other four mAChR subtypes. It is filed as cell-based. Conditions: read-out: activity against all four other mAChR subtypes.
Data set [8] concerns the target T4, rat M4 receptor (Rattus norvegicus, UniProt P08485).
T4 sequence (P08485 1-478): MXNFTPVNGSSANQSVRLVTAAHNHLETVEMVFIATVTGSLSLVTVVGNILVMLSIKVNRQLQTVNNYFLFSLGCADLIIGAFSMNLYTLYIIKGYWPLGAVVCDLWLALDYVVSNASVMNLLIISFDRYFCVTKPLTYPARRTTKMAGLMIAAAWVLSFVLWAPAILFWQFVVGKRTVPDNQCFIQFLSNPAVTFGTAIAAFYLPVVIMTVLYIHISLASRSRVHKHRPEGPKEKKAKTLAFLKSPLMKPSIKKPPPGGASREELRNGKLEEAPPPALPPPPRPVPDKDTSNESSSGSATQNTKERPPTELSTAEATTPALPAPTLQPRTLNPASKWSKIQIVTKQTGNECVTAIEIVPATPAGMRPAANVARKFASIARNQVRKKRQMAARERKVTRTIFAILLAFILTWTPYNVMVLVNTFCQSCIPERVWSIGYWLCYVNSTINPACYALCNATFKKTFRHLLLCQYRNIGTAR
Conditions: read-out: rat M4 potency; cited from earlier work.

Data set [9] addresses T1, human M4 receptor. The conditions noted are these: cited from earlier work.

Take `Cc1nc2sc(C(=O)NCc3cccc(F)c3F)c(N)c2c(C)c1Cl` [Compound 2]: the “pEC50 ± SEM” value in data set [1] turned out to be 6.91 ± 0.05.

In the case of `Cc1nc2sc(C(=O)NC3CC3)c(N)c2c(C)c1Cl` [Compound 3], the EC50 in data set [2] and in data set [6] was about 600 nM throughout. Moreover, the “predicted clearance in the rat (CLHEP), in words” value in data set [3] is recorded as “high clearance”. Besides, the rCLHEP in data set [3] was 51.0 mL/min/kg. In addition, the hCLHEP in data set [4] is listed as 13.9 mL/min/kg. In data set [5], the “rPPB (%fu)” value was ~ 2%. In addition, the “pEC50 ± SEM” value in data set [1] came out at 7.11 ± 0.32.

Turning to `Cc1nc2sc(C(=O)NCc3ccncc3)c(N)c2c(C)c1Cl` [Compound 4, 3-amino-5-chloro-4,6-dimethyl-N-(pyridinyl-4-methyl)thieno[2,3-b]pyridine-2-carboxamide], the EC50 in data set [7] is over 30 µM. Also, in data set [3], the “predicted clearance in the rat (CLHEP), in words” value is given as “high clearance” and the rCLHEP is recorded as 55.2 mL/min/kg.

On to `Cc1cc(CNC(=O)c2sc3nc(C)c(Cl)c(C)c3c2N)ccn1` [Compound 6], for which the “pEC50 ± SEM” value in data set [1] is 7.21 ± 0.05.

Take `Cc1nc2sc(C(=O)NC(C)c3cccnc3)c(N)c2c(C)c1Cl` (centres unmarked) [Compound 8]: the “pEC50 ± SEM” value in data set [1] was 6.17 ± 0.08.

As for `Cc1nc2sc(C(=O)NC(C)c3ccccn3)c(N)c2c(C)c1Cl` (centres unmarked) [Compound 10], in [1], the “pEC50 ± SEM” value was 5.86 ± 0.07.

Consider `Cc1nc2sc(C(=O)NCCc3ccncc3)c(N)c2c(C)c1Cl` [Compound 11], for which the “pEC50 ± SEM” value in data set [1] came to 6.89 ± 0.09.

In the case of `Cc1nc2sc(C(=O)NCCc3ccccn3)c(N)c2c(C)c1Cl` [Compound 13], the “pEC50 ± SEM” value in data set [1] was 6.07 ± 0.06.

On to `Cc1nc2sc(C(=O)NCc3ccncn3)c(N)c2c(C)c1Cl` [Compound 15], for which the “pEC50 ± SEM” value in data set [1] came out at 6.57 ± 0.06.

`Cc1nc2sc(C(=O)NCc3ccnnc3)c(N)c2c(C)c1Cl` [Compound 17]: in data set [1], the “pEC50 ± SEM” value amounted to 6.49 ± 0.08.

Regarding `Cc1nc2sc(C(=O)NCc3ccc4c(c3)OCO4)c(N)c2c(C)c1Cl` [Compound 18], the “pEC50 ± SEM” value in [1] is on record as 7.09 ± 0.08.

For the molecule `Cc1nc2sc(C(=O)NCc3ccccc3)c(N)c2c(C)c1Cl` [Compound 19], in [1], the “pEC50 ± SEM” value is on record as 6.97 ± 0.05.

Consider `Cc1nc2sc(C(=O)NCc3ccc(F)c(F)c3)c(N)c2c(C)c1Cl` [Compound 20], for which, in data set [1], the “pEC50 ± SEM” value is recorded as 6.81 ± 0.28.

In the case of `Cc1nc2sc(C(=O)NCc3ccccc3Cl)c(N)c2c(C)c1Cl` [Compound 21], in [1], the “pEC50 ± SEM” value amounted to 6.81 ± 0.07.

As to `Cc1ccc(CNC(=O)c2sc3nc(C)c(Cl)c(C)c3c2N)cc1` [Compound 22], the “pEC50 ± SEM” value in [1] came to 6.98 ± 0.10.

Consider `Cc1nc2sc(C(=O)NCc3ccc(Cl)cc3)c(N)c2c(C)c1Cl` [Compound 23], for which the “pEC50 ± SEM” value in data set [1] is 6.75 ± 0.14.

For `Cc1nc2sc(C(=O)NCc3nccs3)c(N)c2c(C)c1Cl` [Compound 24], the “pEC50 ± SEM” value in [1] is on record as 6.60 ± 0.07.

Take `Cc1nc2sc(C(=O)NCc3ccc(C(F)(F)F)cc3)c(N)c2c(C)c1Cl` [Compound 25]: the “pEC50 ± SEM” value in data set [1] was determined as 5.76 ± 0.27.

On to `Cc1nc2sc(C(=O)NC3CCOC3)c(N)c2c(C)c1Cl` (centres unmarked) [Compound 29], for which, in [1], the “pEC50 ± SEM” value worked out at 7.28 ± 0.07.

Take `Cc1nc2sc(C(=O)NC3COC3)c(N)c2c(C)c1Cl` [Compound 30]: the “pEC50 ± SEM” value in data set [1] is reported as 5.70 ± 0.24.

On to `Cc1nc2sc(C(=O)NC(C)C)c(N)c2c(C)c1Cl` [Compound 31], for which the “pEC50 ± SEM” value in data set [1] is on record as 6.83 ± 0.06.

For the molecule `Cc1nc2sc(C(=O)NC3CCCCC3)c(N)c2c(C)c1Cl` [Compound 32], in [1], the “pEC50 ± SEM” value turned out to be 6.65 ± 0.03.

For the molecule `Cc1nc2sc(C(=O)NC(C)(C)C)c(N)c2c(C)c1Cl` [Compound 34], the “pEC50 ± SEM” value in data set [1] was found to be 6.51 ± 0.05.

`Cc1nc2sc(C(=O)NCCC3CCCN3C)c(N)c2c(C)c1Cl` (centres unmarked) [Compound 36]: the “pEC50 ± SEM” value in [1] is 6.03 ± 0.07.

Take `COc1nc2sc(C(=O)NC3CC3)c(N)c2c(C)c1Cl` [LY2033298]: the EC50 was 629 nM in [8] and 65 nM in data set [9] (read-out: human M4 potency, human receptor).

Take `COc1ccc(C)c2sc(NC(=O)c3ccncc3)nc12` [ML293]: the EC50 in [9] (read-out: hM4 potency, previously reported probe, ref 9d) is 1300 nM.
